Patent US20130074216A1, “TOMATO CATECHOL-O-METHYLTRANSFERASE SEQUENCES AND METHODS OF USE” (UNIVERSITY OF FLORIDA RESEARCH FOUNDATION, INC., priority 2011, published 2013)

Legend:
SIOMT1 = assay: Substrate specificity assay of purified recombinant SIOMT1 with [14C]-AdoMet; type: biochemical, Solanum lycopersicum; conditions: 15 μM substrate, 30 min, 25°, products extracted with hexanes, scintillation counting
Experimental: FIG. 2 illustrates the chemical structure and relative activity of SIOMT1 on catechol and substrates with similar structure to catechol. Relative activity was determined by incubating purified SIOMT with excess amounts of [C^14]-AdoMet and […] of substrate. Products were extracted with hexanes and measured with a scintillation counter. Relative activity is expressed as a percentage of activity on catechol. 1=catechol; 2=guaiacol; 3=salicylic acid; 4=benzoic acid; 5=orcinol; 6=caffeic acid.
For substrate specificity assays, 5 μL purified enzyme was assayed at 25° in a 100 μL reaction containing 50 mM Tris-HCl, pH 7.5, 100 mM KCl, 2.8 mM BME, 15 μM substrate, 10 mM SAM, 0.4 mM [methyl-^14C] AdoMet (specific activity 50.4 mCi mmol^−1; Amersham). Substrates were diluted in 50% EtOH. Assays were done in triplicate, including boiled enzyme controls. After 30 min at 25° the reactions were stopped by adding equal volumes of hexanes. The methylated substrate was extracted on a vortex mixer for 15 sec and centrifuging at 13 200 g for 5 min. 50 μL of the organic layer was counted for 10 min in 3 ml Ready Gel Scintillation Fluid (Beckman Coulter, http://www.beckmancoulter.com). Counts for the boiled enzyme controls were subtracted from the sample counts, and activity for catechol was normalized to 100%. For the Km of catechol, procedures were the same as above, except for catechol concentrations. Concentrations used were: 0, 1, 5, 15, 25, and 50 μM.
To further test the specificity of SGN-U582403 (SIOMT1) for catechol, the activity of SIOMT1 on substrates with similar structure to catechol was measured. Purified protein was incubated with [^14C]-AdoMet and the following potential substrates: catechol, guaiacol, salicylic acid, benzoic acid, orcinol, or caffeic acid. Products were extracted with hexanes and measured with a scintillation counter.

[1] = tested on: tomato fruit pericarp discs; assay: Catechol feeding of tomato fruit pericarp discs, guaiacol by GC/MS; type: cell-based, Solanum lycopersicum cv. Flora-Dade; conditions: 10 μl of 1 M catechol per disc
Experimental: FIGS. 6A and 6B illustrate results of catechol feeding of tomato discs. Tomato fruit discs were made from the pericarp of Flora-Dade and SIOMT1OE ripe fruit and treated with water or catechol. Volatiles of the discs were collected after 5 h and analyzed using GC-MS. FIG. 6A illustrates the spectrum showing the guaiacol peak at 20.65 minutes. […] The table in FIG. 6B summarizes the differences in guaiacol production between Flora-Dade and SIOMT1OE.
Tomato discs were cut from pericarp tissue of ripe WT and SIOMT1 over-expressing fruit using a size 10 borer. A hundred discs were used for each sample treatment. Discs were placed in petri dishes and an X was cut in the top of each. 10 μl of either water or 1 M catechol dissolved in water was pipetted into each disc. Cover were place on petri dish and disc were left to incubate for 5 hr. Disc were then place in glass tube and volatiles were extracted as previously described. Guaiacol was quantified on GC/MS using a guaiacol standard curve.
Rather, low concentrations of catechol might limit the production of guaiacol in SIOMT1 plants. Thus, to further test this, catechol was fed to fruit pericarp discs of Flora-Dade (WT) and SIOMT1 over-expressing lines. Volatiles were collected after incubation for […]. Both WT and SIOMT1 discs produced increased guaiacol when fed catechol. […]

[2] = Initial screen: catechol added to E. coli cultures expressing candidate OMT, guaiacol production measured; type: cell-based, Solanum lycopersicum cv. M82; conditions: induced protein in E. coli cultures
Experimental: Potential S. lycopersicum catechol OMT candidates were selected by identification of genes with homology to previously characterized catechol and caffeic acid OMTs (FIG. 1). Five candidate genes were selected, SGN-U582403, SGN-U565623, SGN-U319245, SGN-U575022, and SGN-U321686. Full length cDNAs were synthesized from S. lycopersicum cv. M82 ripe fruit RNA. Candidate genes were cloned into pET160 plasmids for expression in E. coli. Initial screens were performed by adding catechol directly to bacterial cultures expressing induced protein and measuring guaiacol production.

Molecule	activity of SIOMT1 on substrate relative to catechol (SIOMT1)	guaiacol produced by catechol-fed discs relative to the unfed control ([1]; SIOMT1 over-expressing discs)	guaiacol produced by catechol-fed discs relative to the unfed control ([1]; WT (Flora-Dade) discs)	conversion of catechol to guaiacol by candidate OMT [2]
O=C(O)/C=C/c1ccc(O)c(O)c1 [caffeic acid]	slight activity			
Oc1ccccc1O [catechol]	preferentially methylated	52 times	36 times	
Cc1cc(O)cc(O)c1 [orcinol]	slight activity			
U582403: tomato catechol O-methyltransferase from S. lycopersicum, SEQ ID NO: 3 (protein, S. lycopersicum) MGSTANIQLATQSEDEERNCTYAMQLLSSSVLPFVLHSTIQLDVFDILAKDKAATKLSALEIVSHMPNCKNPDAATMLDRMLYVLASYSLLDCSVVEEGNGVTERRYGLSRVGKFFVRDEDGASMGPLLALLQDKVFINSWFELKDAVLEGGVPFDRVHGVHAFEYPKLDPKFNDVFNQAMINHTTVVMKRILENYKGFENLKTLVDVGGGLGVNLKMITSKYPTIKGTNFDLPHVVQHAPSYPGVDHVGGDMFESVPQGDAIFMKWILHDWSDGHCLKLLKNCHKALPDNGKVIVVEANLPVKPDTDTTVVGVSQCDLIMMAQNPGGKERSEQEFRALASEAGFKGVNLICCVCNFWVMEFYK				converted catechol to guaiacol
